Experimental data reported in US20090269362A1, “Method for Controlling Immunodominance” (priority 2005, published 2009).

Columns and labels:
lymph node cells = test: IL-2 ELISPOT after immunization with peptide (cross reactivity of WT and variant); type: in vivo, mouse; conditions: mice immunized with WT or variant peptide
sI-A^d [1] = conditions: pH 5.3, 37° C., FITC peptide from sI-A^d
CD4 T cells [2] = test: IL-2 ELISPOT of draining lymph node cells after immunization with MalE:insert protein; type: in vivo, mouse; conditions: mice immunized with MalE protein
[3] = system: peptide specific T cell hybridomas; test: T cell hybridoma assay (IL-2 production, CTLL/MTT); type: cell-based, mouse
sI-A^d [4] = test: Peptide competition with FITC-HA[126-138] for binding to soluble I-A^d; parameters: species or system mouse; conditions: 1 μM FITC-HA[126-138], 20 nM soluble I-A^d
Procedure: B. The percentage of inhibition of binding of 1 μM N-terminal FITC-HA[126-138] to sI-A^d by the unlabeled competitor peptide was plotted against the concentration of unlabeled inhibitory peptide. Data is represented as a Hill Plot (Hill, J Physiol 40, iv-vii, 1910), and is the average of 2 independent experiments
Soluble I-A^d (20 nM) and 1 μM FITC-HA[126-138] were used for competition assays, which is in the titratable range of peptide and class II molecules. Unlabeled competitor peptides at a final concentrations ranging between 0-500 μM were mixed, and after 16-20 h of incubation at 37° C., the sI-A^d-FITC-HA[126-138] complex was separated from free peptide and quantified as described above. Inhibition by competitor peptides was calculated using the Hill equation ((Hill, J Physiol 40, iv-vii, 1910), with the IC50 value the concentration of unlabeled competitor peptide required to achieve 50% inhibition of the labeled peptide binding to class II molecules.

CD4 T cells [5] = test: IL-2 ELISPOT after immunization with OVA protein; type: in vivo, mouse; conditions: mice immunized with OVA protein
Procedure: Groups of 2 BALB/c mice were immunized in the footpad with (A) 200 μg/mL OVA protein, (B) 200 μg/mL of the indicated MalE protein, or (D and E) 5 nmol of the indicated peptide emulsified in 50 μL PBS:CFA. The number of IL-2 producing cells at day 10 was determined by 16 h in vitro stimulation of CD4 purified cells with syngeneic spleen cells and (A) 200 μg/mL protein or 12.5 μM peptide, (B) 200 μg/mL protein or 5 μM peptide, or (D and E) the indicated amount of peptide and quantified using IL-2 ELISPOT assays with background subtracted. (A and D) Data represents the mean counts of two separate cell dilutions ([…] and 1.25×10^5) of triplicate wells normalized as indicated. […] Data are representative of at least 2 independent experiments.
To provide another example of a cryptic epitope that can gain immunodominance by simply changing its kinetic stability with I-A^d, one of the peptide registers contained within the prototypic I-A^d-restricted peptide OVA [323-339] (Jenkins et al., Annu Rev Immunol 19, 23-45, 2001; Sette et al., J Immunol 142, 35-40, 1988) was studied. Several studies (McFarland et al., Biochemistry 38, 16663-16670, 1999; Robertson et al., J Immunol 164, 4706-4712, 2000) have shown that this long peptide contains several alternative registers, including the most amino terminal segment that was co-crystallized with I-A^d (Scott et al., Immunity 1, 73-83, 1998). […]

Sequence of sI-A^d (P04228 24-111 limits assumed): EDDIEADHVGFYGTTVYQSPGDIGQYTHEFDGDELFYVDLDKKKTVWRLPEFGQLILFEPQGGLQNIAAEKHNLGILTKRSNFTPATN
Sequence of sI-A^d (P01921 28-122 limits assumed, further chain): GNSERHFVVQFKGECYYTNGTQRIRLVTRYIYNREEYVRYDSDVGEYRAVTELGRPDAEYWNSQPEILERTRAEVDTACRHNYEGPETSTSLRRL

Row | Substance | cross reactivity between WT and variant peptide after peptide immunization (in words) (lymph node cells) | t1/2 (half-life, kinetic stability) of peptide with I-A^d (sI-A^d [1]) | immunogenicity of peptide within MalE (in words) (CD4 T cells [2]) | stimulation of specific T cell hybridoma by soluble peptide (in words) ([3]; peptide presented by I-A^d expressing cells) | competition with HA [126-138] for binding to I-A^d (in words) (sI-A^d [4]) | reactivity of specific T cell hybridoma to peptide inserted into MalE (in words) ([3]; MalE:insert protein, BALB/c spleen as APCs) | percent of T cells raised against OVA that recognize the peptide (CD4 T cells [5])
1 | A332I, I334V: OVA [327-339] variant with substitutions at P4 and P6 (AVHAAHIEVNEAG; UniProt P01012 327-339, looked up, variant A332I I334V) | cross-reacted back onto the WT OVA peptide | greater than 80 h | immunodominant peptide | recognized by the 3DO11.10 T cell hybridoma | – | – | –
2 | AMKRHGLDNYRGYSL [HEL [11-25], hen-egg lysozyme [11-25], prototypic cryptic peptide] | – | 6 h | failure in immunogenicity | – | competed well | gained reactivity | –
3 | HEL R14Q, G22S: HEL [11-25] variant with changes at P1 and P9 (AMKQHGLDNYRSYSL; UniProt P00698 29-43, looked up, variant R14Q G22S) | – | 11 h | remained non-immunogenic | – | – | – | –
4 | HEL [20-35]: cryptic epitope of hen-egg lysozyme (YRGYSLGNWVCAAKFE; UniProt P00698 38-53, looked up, fragment) | – | 4 h | – | – | competed poorly | – | –
5 | OVA [273-288]: immunodominant I-Ad restricted epitope from chicken ovalbumin (VMEERKIKVYLPRMKM; UniProt P01012 273-288, looked up, fragment) | – | 160 h | – | – | – | – | –
6 | OVA [327-339]: carboxyterminal register of OVA [323-339] recognized by the 3DO11.10 T cell (AVHAAHAEINEAG; UniProt P01012 327-339, looked up, fragment) | – | 0.3 h | – | – | – | – | Less than 1%
7 | R14Q, N19A, G22S: HEL [11-25] variant with changes at P1, P6, and P9 (AMKQHGLDAYRSYSL; UniProt P00698 29-43, looked up, variant R14Q N19A G22S) | a significant portion of the T cells elicited were non-reactive with the WT HEL peptide | 35 h | significant gain in immunogenicity | – | – | – | –
